The test system of one assay is THP1 cells. In words: IFN-β secretion in THP1 cell culture (5 h). Type of assay: cell-based, human. As to conditions: cGAMP at 30 uM set at 100%. The method, then: IFN-β secretion in THP1 cell culture (5 h)
The ability of compounds to stimulate the secretion of interferon-beta from THP1 cells was measured using a human IFN-0 AlphaLISA kit (Perkin Elmer, Cat. No. AL265F). The basic protocol is as follows:
A Labcyte Echo 550 acoustic dispenser was used to transfer 120 nL of compound dissolved in DMSO into the wells of an empty, sterile 384-well microplate, (Corning, Cat. No. 3712). THP1 cells (American Type Culture Collection, Cat. No. TIB202) previously frozen in Recovery Medium (Life Technologies, Cat. No. 12648-010) were thawed and immediately diluted 10-fold into 37° C. assay medium (RPMI 1640+L-Glutamine & phenol red, Life Technologies, Cat. No. 11875-085; 0.5% heat inactivated fetal bovine serum, Sigma Aldrich, Cat. No. F4135; 1 mM Sodium Pyruvate, Life Technologies, Cat. No. 11360-070; 1× non-essential amino acids; Life Technologies, Cat. No. 11140-050). The cell viability and count was ascertained using a Beckman Coulter V-Cell XR cell counter. The cell suspension was centrifuged at 200×g for 5 min at RT. Cells were resuspended to a density of 0.8×10^6/mL in 37° C. assay medium. Subsequent liquid transfers were performed using either a Matrix electronic multichannel pipette or an Agilent Bravo Automated Liquid Handling Platform. The assay was started by dispensing 40 μL of the previously prepared cell suspension into the wells of the plate containing compounds. After 5 h incubation at 37° C., 5% CO2 in a humidified atmosphere, the plate of cells and compounds was centrifuged at 200×g for 5 min at RT. From each well, 5 μL of supernatant was transferred into corresponding wells of a white 384-well plate (Perkin Elmer, Cat. No. 6005620). To these supernatant-containing wells was added 10 μL of 5× Anti-Analyte Acceptor beads (50 μg/mL of AlphaLISA HiBlock Buffer) and incubated for 30 min at RT while shaking on an orbital plate shaker. To each well was added 10 μL of 5× Biotinylated Antibody Anti-analyte (5 nM in AlphaLISA HiBlock Buffer) and incubated on an orbital plate shaker for 60 min at RT or overnight at 4° C. To each well was added 25 μL of 2×SA-Donor beads (80 μg/mL in AlphaLISA HiBlock Buffer) and incubated for 30-45 min at RT in the dark while shaking on an orbital plate shaker. The plate was then read on a Perkin Elmer Envision (λex=680 nm, […]). The percent effect of the AlphaLISA signal at each compound concentration was calculated based on 30 uM cGAMP positive controls and 0.3% DMSO negative controls. The plot of percent effect versus the log of compound concentration was fit with a 4-parameter concentration response equation to calculate EC50 values. The test compounds were tested at concentrations 30000, 10000, 3333, 1111, 370.4, 123.4, 41.2, 13.7, 4.6, and 1.5 nM with 0.3% residual DMSO. The control compound, cGAMP was tested at concentrations 100000, 33333, 11111, 3704, 1235, 412, 137, 46, and 15 nM with 0.3% residual DMSO.
Compounds of the disclosure were evaluated for IFN-β secretion in THP1 cell culture as described above. The following table tabulates the biological data for these compounds as percent activation relative to 2′3′-cGAMP at the 30 μM concentration.

In the next assay the target is T1, full-length HAQ STING (Homo sapiens, UniProt Q86WV6, G230A/H232R/R293Q/R71H).
T1 construct: Full-Length HAQ STING [STING(1-379)R71H, G230A, H232R,; made in house; host or cells: Trichoplusia ni (Hi-Five) insect cells infected with baculovirus; washed membranes were used
In words: 3H-cGAMP filtration binding assay (HAQ STING). As to conditions: competition with tritiated cGAMP ligand, HAQ STING membrane. From the text:
The ability of compounds to bind STING is quantified by the ability to compete with tritiated cGAMP ligand for human STING receptor membrane using a radioactive filter-binding assay. The binding assay employs STING receptor obtained from Hi-Five cell membranes overexpressing full-length HAQ STING prepared in-house and tritiated cGAMP ligand also purified in-house.
The ability of compounds to bind STING is quantified by their ability to compete with tritiated cGAMP ligand for human STING receptor membrane using a radioactive filter-binding assay. The binding assay employs STING receptor obtained from Trichoplusia ni cell membranes (T.ni; Expression Systems, cat #94-002F, www.expressionsystems.com) overexpressing full-length HAQ STING and tritiated cGAMP ligand.
The basic HAQ STING filtration assay protocol is as follows:
Compound and membrane then preincubated for 60 min at RT to allow compound binding to equilibrate. Following equilibration, 8 nM of [^3H]c-GAMP ligand was prepared by diluting into assay buffer, and 50 uL of this working stock was then manually added to each well of the assay plate. […] The filter plates were then dried at 55° C. for 30 min using a pressurized oven before 30 uL of ULTIMA GOLD F scintillate was added to each well. Tritium levels for each reaction well were then measured using a PerkinElmer TopCount plate reader.
After normalization to controls, the percent activity for each compound concentration was calculated by measuring the amount of remaining radioactivity. The plot of percent activity versus the log of compound concentration was fit with a 4-parameter dose response equation to calculate EC50 values.

T1 sequence (Q86WV6 with tags, fused parts or gaps R71H/G230A/H232R/R293Q): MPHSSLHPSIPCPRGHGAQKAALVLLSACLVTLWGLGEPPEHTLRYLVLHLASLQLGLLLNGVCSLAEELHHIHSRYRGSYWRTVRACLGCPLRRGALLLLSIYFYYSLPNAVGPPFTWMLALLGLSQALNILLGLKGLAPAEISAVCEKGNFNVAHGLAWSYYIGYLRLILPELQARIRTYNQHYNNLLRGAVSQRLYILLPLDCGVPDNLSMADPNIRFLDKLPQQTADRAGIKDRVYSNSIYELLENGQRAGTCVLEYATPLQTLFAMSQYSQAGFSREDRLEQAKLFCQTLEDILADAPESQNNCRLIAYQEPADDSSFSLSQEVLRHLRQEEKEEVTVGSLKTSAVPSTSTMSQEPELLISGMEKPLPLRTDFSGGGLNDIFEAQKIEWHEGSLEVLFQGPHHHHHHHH

In the case of `Nc1nc2c(ncn2[C@@H]2O[C@@H]3COP(=O)(S)O[C@@H]4C[C@H](n5cnc6c(N)ncnc65)O[C@@H]4COP(=O)(S)O[C@@H]2[C@@H]3F)c(=O)[nH]1` (single isomer, unassigned) [Example 1], the “% Effect at 30 μM relative to 2′3′-cGAMP” value in the assay with THP1 cells is listed as 112%.
Same read-out and setting: then `Nc1nc2c(ncn2[C@@H]2O[C@@H]3COP(=O)(S)O[C@@H]4C[C@H](n5cnc6c(N)ncnc65)O[C@@H]4COP(=O)(S)O[C@@H]2[C@@H]3F)c(=O)[nH]1` (single isomer, unassigned) [Example 2], with 114%.
In the case of `Nc1ncnc2c1ncn2[C@@H]1O[C@@H]2COP(=O)(S)O[C@@H]3[C@H](O)[C@@H](COP(=O)(S)O[C@@H]2[C@H]1O)O[C@H]3n1ccc(=O)n2ccnc12` (single isomer, unassigned) [Example 4], the EC50 (usually the midpoint of the concentration-response curve) on full-length HAQ STING is 3690 nM. Further, in the assay with THP1 cells, the “% Effect at 30 μM relative to 2′3′-cGAMP” value is 30%.
With `Nc1ncnc2c1ncn2[C@@H]1O[C@@H]2COP(=O)(S)O[C@@H]3[C@H](O)[C@@H](COP(=O)(S)O[C@@H]2[C@H]1O)O[C@H]3n1ccc(=O)n2ccnc12` (single isomer, unassigned) [Example 5], the EC50 on full-length HAQ STING was 4410 nM. Moreover, the “% Effect at 30 μM relative to 2′3′-cGAMP” value with THP1 cells is recorded as 62%.
The like results for `Nc1nc2c(ncn2[C@@H]2O[C@@H]3COP(=O)(S)O[C@@H]4[C@H](F)[C@H](n5cnc6c(N)ncnc65)O[C@@H]4COP(=O)(S)O[C@@H]2C3)c(=O)[nH]1` (single isomer, unassigned) [Example 6] were, in that order, 48.6 nM and 61%.
For the compound `Nc1nc2c(ncn2[C@@H]2O[C@@H]3COP(=O)(S)O[C@@H]4[C@H](F)[C@H](n5cnc6c(N)ncnc65)O[C@@H]4COP(=O)(S)O[C@@H]2C3)c(=O)[nH]1` (single isomer, unassigned) [Example 7], a half-maximal effect at full-length HAQ STING (EC50) was put at 2.35 nM. In addition, in the assay on THP1 cells, the “% Effect at 30 μM relative to 2′3′-cGAMP” value amounted to 118%.
In the case of `Nc1nc2c(ncn2[C@@H]2O[C@@H]3COP(=O)(S)O[C@@H]4[C@@H](O)[C@H](n5cnc6c(N)ncnc65)O[C@@H]4COP(=O)(S)O[C@@H]2C3)c(=O)[nH]1` (stereo partly drawn) [Example 3, 2-amino-9-[(5S,7R,8R,12aR,14R,15R,15aR)-14-(6-amino-9H-purin-9-yl)-15-hydroxy-2,10-dioxido-2,10-disulfanyloctahydro-12H-5,8-methanofuro[3,2-l][1,3,6,9,11,2,10]penta-oxadiphosphacyclotetradecin-7-yl]-1,9-dihydro-6H-purin-6-one], the “% Effect at 30 μM relative to 2′3′-cGAMP” value in the assay on THP1 cells came to 63%.

These data come from patent publication US20220033435A1, “Cyclic Di-Nucleotide Compounds as STING Agonists” (Merck Sharp & Dohme Corp., priority 2018, published 2022).
